“And” between values parts separate entries of the source, which are not always exact repeats. Identical values can stand only once.

Experiment [1] has as its system GFP–CaMKII K42M in rat hippocampal neurons. The experiment in a line: cLTP-induced CaMKII synaptic enrichment in dissociated hippocampal cultures (GFP–CaMKII K42M). The following applies: sheet 4e. Type of experiment: cell-based.
The next experiment deals with CaMKIIα F89G (Homo sapiens, UniProt Q9UQM7, F89G). In words: In vitro kinase reactions with CaMKII F89G ± NM-PP1 (pT286, pS831). Type of experiment: biochemical. To be noted: 10 µM NM-PP1. The procedure: Fig. 4 The CaMKII mutation F89G impairs ATP binding but binds the ATP-competitive inhibitor NM-PP1 that restores GluN2B binding and LTP-induced synaptic translocation. Data are presented as mean values ± s.e.m. a, Schematic of the pharmacogenetic method of ATP-competitive CaMKII inhibition; enlargement of the CaMKII ATP-binding pocket by the F89G mutation allows for selective binding of the ATP-competitive inhibitor NM-PP1. b, Immunoblots of in vitro kinase reactions at 30 °C including GFP–CaMKII WT, K42M and F89G with GST–GluA1-c tail. […] Correlation indices were measured before and after Ionomycin-induced colocalization of GFP–CaMKII (WT, K42M and F89G) with mCherry-2BC, represented as change in the correlation index (vehicle: n = 22, 17, 12 cells; NM-PP1: n = 20, 24, 13 cells; one-way ANOVA, Tukey’s multiple comparisons test). […] CaMKII synaptic enrichment was measured before and after cLTP (n = 13, 14, 14 cells; RM two-way ANOVA with Šídák’s multiple comparisons test). […] CaMKII synaptic enrichment was measured before and after cLTP (n = 7, 6, 7 cells; RM two-way ANOVA with Šídák’s multiple comparisons test). […]
CaMKII-mediated phosphorylation of GluA1 S831 or GluN2B S1303 was measured by in vitro kinase reaction with a purified GST–GluA1 C-terminal tail or GST-GluN2B C-terminal tail. […]

For a further experiment, the target named is cKit(h) (Homo sapiens, UniProt P10721). In words: Kinase selectivity panel (residual activity at 1 μM). The experiment is classed as biochemical. The following applies: inhibitor at 1 μM; read-out: residual kinase activity in % of maximal activity.
In a further experiment the target is GSK3β(h) (Homo sapiens, UniProt P49841). The description is as above. The experiment is classed as biochemical. To be noted: inhibitor at 1 μM; read-out: residual kinase activity in % of maximal activity.
The target of a further experiment is KDR(h) (Homo sapiens, UniProt P35968). The description is as above. To be noted: inhibitor at 1 μM; read-out: residual kinase activity in % of maximal activity. Type of experiment: biochemical.
The target in the next experiment is p70S6K(h) (Homo sapiens, UniProt P23443). The experiment is described as above. The experiment is classed as biochemical. The following applies: inhibitor at 1 μM; read-out: residual kinase activity in % of maximal activity.
A further experiment has as its target Pim-1(h) (Homo sapiens, UniProt P11309). Described as above. To be noted: inhibitor at 1 μM; read-out: residual kinase activity in % of maximal activity. Type of experiment: biochemical.

Chain of p70S6K(h) (P23443 whole entry): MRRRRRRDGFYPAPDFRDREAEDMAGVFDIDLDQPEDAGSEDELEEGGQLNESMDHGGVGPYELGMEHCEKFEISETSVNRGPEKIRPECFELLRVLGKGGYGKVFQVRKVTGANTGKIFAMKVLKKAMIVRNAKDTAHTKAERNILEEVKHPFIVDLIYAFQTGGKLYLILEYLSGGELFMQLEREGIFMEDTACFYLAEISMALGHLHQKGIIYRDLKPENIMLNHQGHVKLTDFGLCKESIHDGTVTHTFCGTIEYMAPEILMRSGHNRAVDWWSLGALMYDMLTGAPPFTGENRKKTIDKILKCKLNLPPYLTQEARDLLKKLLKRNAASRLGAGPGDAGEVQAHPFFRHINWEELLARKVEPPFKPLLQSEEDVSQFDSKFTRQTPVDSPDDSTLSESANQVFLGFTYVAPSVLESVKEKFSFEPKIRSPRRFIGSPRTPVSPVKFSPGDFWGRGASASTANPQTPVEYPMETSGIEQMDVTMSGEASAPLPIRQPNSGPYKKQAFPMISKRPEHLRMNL
Chain of KDR(h) (P35968 20-1356): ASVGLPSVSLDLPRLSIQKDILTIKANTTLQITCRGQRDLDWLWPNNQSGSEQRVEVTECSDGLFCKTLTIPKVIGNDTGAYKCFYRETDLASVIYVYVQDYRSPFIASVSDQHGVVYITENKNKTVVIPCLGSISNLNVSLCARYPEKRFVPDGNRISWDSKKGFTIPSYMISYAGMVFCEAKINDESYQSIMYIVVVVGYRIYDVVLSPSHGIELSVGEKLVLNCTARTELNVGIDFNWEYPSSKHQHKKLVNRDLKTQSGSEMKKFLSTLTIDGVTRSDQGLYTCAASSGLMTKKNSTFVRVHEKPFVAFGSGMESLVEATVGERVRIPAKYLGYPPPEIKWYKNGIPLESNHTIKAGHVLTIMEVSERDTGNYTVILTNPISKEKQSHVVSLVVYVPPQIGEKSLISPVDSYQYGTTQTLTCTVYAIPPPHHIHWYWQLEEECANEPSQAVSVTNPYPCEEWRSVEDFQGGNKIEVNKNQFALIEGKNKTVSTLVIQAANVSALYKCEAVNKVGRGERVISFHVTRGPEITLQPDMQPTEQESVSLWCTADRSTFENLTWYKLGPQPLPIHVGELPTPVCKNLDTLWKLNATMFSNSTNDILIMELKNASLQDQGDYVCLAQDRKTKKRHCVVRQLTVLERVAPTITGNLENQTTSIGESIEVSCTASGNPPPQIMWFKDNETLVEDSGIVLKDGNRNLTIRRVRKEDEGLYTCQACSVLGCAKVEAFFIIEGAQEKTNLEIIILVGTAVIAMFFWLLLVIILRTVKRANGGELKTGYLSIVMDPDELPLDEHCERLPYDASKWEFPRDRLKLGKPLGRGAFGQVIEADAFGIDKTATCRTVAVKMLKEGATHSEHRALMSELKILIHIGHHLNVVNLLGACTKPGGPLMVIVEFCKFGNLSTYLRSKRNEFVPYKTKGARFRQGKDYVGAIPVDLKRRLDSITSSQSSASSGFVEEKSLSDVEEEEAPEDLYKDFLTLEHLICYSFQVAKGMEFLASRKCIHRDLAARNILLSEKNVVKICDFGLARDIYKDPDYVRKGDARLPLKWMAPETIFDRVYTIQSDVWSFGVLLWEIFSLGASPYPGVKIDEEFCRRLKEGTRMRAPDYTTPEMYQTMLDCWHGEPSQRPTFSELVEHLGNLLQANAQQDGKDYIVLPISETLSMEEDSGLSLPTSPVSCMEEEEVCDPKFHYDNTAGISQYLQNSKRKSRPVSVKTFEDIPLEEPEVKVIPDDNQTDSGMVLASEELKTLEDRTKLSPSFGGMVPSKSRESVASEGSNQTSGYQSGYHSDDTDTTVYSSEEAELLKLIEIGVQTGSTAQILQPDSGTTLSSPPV
Chain of cKit(h) (P10721 26-976): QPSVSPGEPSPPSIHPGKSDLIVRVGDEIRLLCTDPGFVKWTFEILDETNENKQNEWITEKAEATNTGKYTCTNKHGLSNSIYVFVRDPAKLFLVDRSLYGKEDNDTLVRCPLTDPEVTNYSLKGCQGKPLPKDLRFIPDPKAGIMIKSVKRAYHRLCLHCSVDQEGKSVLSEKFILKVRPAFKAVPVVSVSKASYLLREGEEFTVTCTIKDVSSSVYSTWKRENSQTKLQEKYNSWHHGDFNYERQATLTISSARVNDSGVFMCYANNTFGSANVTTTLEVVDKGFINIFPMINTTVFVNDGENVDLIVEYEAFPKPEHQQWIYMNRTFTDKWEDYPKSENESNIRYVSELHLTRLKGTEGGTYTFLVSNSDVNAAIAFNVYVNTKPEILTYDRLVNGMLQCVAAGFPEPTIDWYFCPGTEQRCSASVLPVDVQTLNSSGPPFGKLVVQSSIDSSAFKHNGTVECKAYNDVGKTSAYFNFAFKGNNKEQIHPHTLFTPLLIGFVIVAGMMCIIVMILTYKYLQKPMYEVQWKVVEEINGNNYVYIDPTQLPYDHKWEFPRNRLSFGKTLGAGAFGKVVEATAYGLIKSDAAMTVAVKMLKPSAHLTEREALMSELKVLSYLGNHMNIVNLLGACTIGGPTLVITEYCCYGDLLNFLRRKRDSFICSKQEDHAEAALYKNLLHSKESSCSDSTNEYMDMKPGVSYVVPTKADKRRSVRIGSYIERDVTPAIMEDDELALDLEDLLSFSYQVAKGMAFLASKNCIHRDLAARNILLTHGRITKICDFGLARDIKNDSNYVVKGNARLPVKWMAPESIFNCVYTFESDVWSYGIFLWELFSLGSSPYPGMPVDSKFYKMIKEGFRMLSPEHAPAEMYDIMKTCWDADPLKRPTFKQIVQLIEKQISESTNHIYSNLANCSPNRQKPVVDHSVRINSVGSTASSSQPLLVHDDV
Chain of GSK3β(h) (P49841 whole entry): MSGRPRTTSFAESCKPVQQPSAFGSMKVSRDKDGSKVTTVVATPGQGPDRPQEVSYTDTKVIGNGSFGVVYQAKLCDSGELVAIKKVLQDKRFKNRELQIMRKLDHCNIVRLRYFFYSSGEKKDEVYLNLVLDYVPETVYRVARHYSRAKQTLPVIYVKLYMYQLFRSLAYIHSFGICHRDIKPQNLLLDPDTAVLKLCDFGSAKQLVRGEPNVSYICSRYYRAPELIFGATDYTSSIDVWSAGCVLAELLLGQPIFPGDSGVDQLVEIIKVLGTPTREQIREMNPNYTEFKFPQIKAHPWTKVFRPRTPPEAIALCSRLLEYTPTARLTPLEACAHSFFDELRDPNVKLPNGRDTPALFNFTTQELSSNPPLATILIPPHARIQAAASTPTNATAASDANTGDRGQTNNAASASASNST
Chain of Pim-1(h) (P11309 whole entry): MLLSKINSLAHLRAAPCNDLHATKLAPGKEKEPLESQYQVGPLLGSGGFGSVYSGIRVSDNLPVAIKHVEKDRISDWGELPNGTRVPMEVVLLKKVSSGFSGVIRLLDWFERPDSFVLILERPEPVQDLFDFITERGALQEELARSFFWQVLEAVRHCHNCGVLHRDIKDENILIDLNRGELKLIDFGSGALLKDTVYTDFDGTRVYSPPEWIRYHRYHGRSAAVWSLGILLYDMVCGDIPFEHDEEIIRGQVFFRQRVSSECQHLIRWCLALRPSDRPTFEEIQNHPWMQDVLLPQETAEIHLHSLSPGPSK

Consider `CC(C)(C)n1nc(Cc2cccc3ccccc23)c2c(N)ncnc21` [NM-PP1], for which the CaMKII synaptic enrichment in experiment [1] (NMPP1, before cLTP, individual neurons) was 1.065 and 0.7915 and 0.7418 and 0.4255 and 0.8744 and 0.8871; in experiment [1] (after cLTP in NMPP1, individual neurons), 1.554 and 1.155 and 0.8796 and 0.5587 and 1.358 and 1.0618. Moreover, the “effect on residual activity of CaMKII F89G” value on CaMKIIα F89G is recorded as “further reduced”.
Regarding `NCCNc1cccc(-c2ccnc3[nH]c4ccccc4c23)c1` [AS283], the remaining activity at 1 µM at cKit(h) is 50%; at GSK3β(h) it was 87%; on KDR(h) it was 15%; on p70S6K(h), 18%; at Pim-1(h), 50%.

These data come from article PMC10482691, “LTP induction by structural rather than enzymatic functions of CaMKII” (Nature, 2023).
